Assay results taken from patent US20260263429A1, “INHIBITORS OF CA 2+/CALMODULIN-DEPENDENT PROTEIN KINASE II (CAMKII) THAT DO NOT INHIBIT LONG-TERM POTENTIATION (LTP) INDUCTION AND THERAPEUTIC USES THEREOF” (The Regents of the University of Colorado, A Body Corporate, priority 2023, published 2026).

Legend:
[1] = system: LTP at the hippocampal CA3 to CA1 synapse; experiment: LTP induction by HFS, field recordings in acute hippocampal slices of wildtype mice; format: cell-based, mouse; details: tatCN21 5 μM; AS283 10 or 30 μM; 15 minutes before, washed out 5 minutes after LTP induction
Protocol: Long term potentiation (LTP) is induced by high frequency stimulation (HFS; 2×100 Hz. 10 sec interval, see Materials and Methods) of CA3-CA1 Schaffer collateral pathways in WT mice and is observed by an increase in slope of field excitatory post synaptic potentials (fEPSPs) that persists after the stimulus is removed. When testing the effect of certain agents on LTP induction (i.e., AS283 or tatCN21), slices were incubated with the agents for 15 minutes before LTP induction and washed out 5 minutes after LTP induction.
Hippocampal slice preparation. WT and mutant mouse hippocampal slices were prepared using P56-70 mice. Isoflurane anesthetized mice were rapidly decapitated, and the brain was dissected in ice-cold high sucrose solution containing 220 mM sucrose, 12 mM MgSO4, 10 mM glucose, 0.2 mM CaCl2), 0.5 mM KCl, 0.65 mM NaH2PO4, 13 mM
NaHCO3, and 1.8 mM ascorbate. […]
Extracellular field recordings. […] Data were analyzed using WinLTP software with slope calculated as the initial rise from 10 to 60% of response peak. […] Responses were recorded for 60 min after HFS. Change in slope was calculated as a ratio of the average slope of the 20 min baseline (before HFS). Bar graphs of % fEPSP slope were calculated by averaging the 50-60-minute timepoints post HFS and normalized to baseline.

[2] = system: GFP-CaMKII synaptic enrichment (mCh-PSD95 intrabody); experiment: cLTP-induced CaMKII movement to excitatory synapses in dissociated rat hippocampal cultures; format: cell-based; details: 10 μM inhibitor; cLTP 100 μM glutamate, 10 μM glycine, 45 seconds
[3] = system: paCaMKII T286A movement to synapses and spine growth; experiment: Photoactivation of paCaMKII T286A in hippocampal neurons (structural LTP); format: cell-based; details: AS283 10 μM; AS397
Source text: In this Example, two sets of pharmacogenetic tools were used in combination with the photoactivable paCaMKII to test whether structural CaMKII functions are not only the necessary but also the sufficient CaMKII functions in LTP. Specifically, in one exemplary method, hippocampal neurons were examined for sLTP (e.g., the LTP-associated growth of dendritic spines) in response to direct photoactivation of paCaMKII without any other stimulation that could trigger additional signaling pathways. […] In both cases, suppressing enzymatic CaMKII activity while allowing or enhancing GluN2B binding enabled induction of structural LTP. […]
(§1) paCaMKII stimulation in hippocampal neurons. […] Neurons were then imaged 15 minutes after stimulation and assessed for CaMKII synaptic enrichment and dendritic spine growth.
(§2) Image analysis of hippocampal neurons. […] 2D maximum intensity projection images were then generated and analyzed using a custom-build program in ImageJ. The program utilizes combinatorial thresholding to mask regions of the cell that contain high intensity PSD-95 puncta (the post-synaptic side of excitatory synapses in dendritic spines) and regions of the dendritic shaft that contain no fluorescence intensity of PSD-95. […] Spine growth was assessed by measuring the changes in mCherry cell fill fluorescence intensity within dendritic spine ROIs (F/F0).

[4] = system: paCaMKII F89G movement to synapses and spine growth; experiment: Photoactivation of paCaMKII F89G in hippocampal neurons (structural LTP); format: cell-based; details: NM-PP1 10 μM
Source text: In this Example, two sets of pharmacogenetic tools were used in combination with the photoactivable paCaMKII to test whether structural CaMKII functions are not only the necessary but also the sufficient CaMKII functions in LTP. Specifically, in one exemplary method, hippocampal neurons were examined for sLTP (e.g., the LTP-associated growth of dendritic spines) in response to direct photoactivation of paCaMKII without any other stimulation that could trigger additional signaling pathways. […] In both cases, suppressing enzymatic CaMKII activity while allowing or enhancing GluN2B binding enabled induction of structural LTP.
as §1, §2

[5] = system: synaptic localization of CaMKII F89G / K42M; experiment: Synaptic localization of GFP-CaMKII F89G or K42M mutants in rat hippocampal cultures, basal and cLTP; format: cell-based; details: 10 μM NM-PP1, basal and cLTP
Protocol: This conclusion also predicts that the LTP stimulus-induced movement of CaMKII to excitatory synapses should be (i) impaired in the CaMKII F89G mutant; but (ii) normalized by pharmacogenetic rescue with NM-PP1. Indeed, both predictions were observed experimentally (FIGS. 4D-4E).
Chemical LTP stimulation. Chemical LTP (CL TP) was induced with 100 μM glutamate and 10 μM glycine for 45 seconds. Treatments were followed by washout in 5 volumes of fresh ACSF. For biochemistry experiments, neurons were treated with 1 μM TTX to silence neurons prior to treatment with cLTP.
Image analysis of hippocampal neurons. […] 2D maximum intensity projection images were then generated and analyzed using a custom-build program in ImageJ. The program utilizes combinatorial thresholding to mask regions of the cell that contain high intensity PSD-95 puncta (the post-synaptic side of excitatory synapses in dendritic spines) and regions of the dendritic shaft that contain no fluorescence intensity of PSD-95. As a measure of synaptic enrichment, the ratio of mean CaMKII fluorescence intensity of the PSD-95 mask to the mean CaMKII fluorescence intensity in the dendritic shaft mask is measured. Spine growth was assessed by measuring the changes in mCherry cell fill fluorescence intensity within dendritic spine ROIs (F/F0).

NCCNc1cccc(-c2ccnc3[nH]c4ccccc4c23)c1 [AS283]
LTP induction in wildtype mouse slices [1]: failed to block LTP induction
cLTP-induced CaMKII co-localization/movement to excitatory synapses in hippocampal neurons [2]: failed to inhibit CaMKII binding to GluN2B
CaMKII movement to synapses after photoactivation of paCaMKII T286A [3]: robust CaMKII movement
spine growth (structural LTP) after photoactivation of paCaMKII T286A [3]: spine growth

CC(C)(C)n1nc(Cc2cccc3ccccc23)c2c(N)ncnc21 [NM-PP1]
CaMKII movement after photoactivation of paCaMKII F89G [4]: enabled similar movement
impaired synaptic localization of CaMKII F89G mutant [5]: rescued
